According to US20090264415A2 (priority 2004, published 2009):
Read-outs that look alike come from different tables or passages of the source.

Tests used:
[1] = test system: peripheral blood mononuclear cells (PBMC) stimulated with allogeneic PBMC or EBV-transformed human B cells (RPMI1788); assay: Mixed lymphocyte reaction (MLR) assay; assay type: cell-based; details: 50% suppression of the MLR, [3H]-thymidine incorporation, read-out: MLR
Procedure, shortened: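 Responder PBMC co-cultured in triplicate with 30 Gy-irradiated allogeneic PBMC or RPMI1788 B cells plus compound (DMSO stock 10 mM, diluted in medium). After 5 days at 37° C, 1 μCi [3H]-thymidine added for 16 h more; incorporated cpm counted and proliferation inhibition calculated.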

[2] = test system: production of human TNF-α by PBMC in response to LPS; assay: TNF-α assay (LPS-stimulated PBMC, sandwich ELISA); assay type: cell-based; details: LPS 1 μg/ml, 72 hours, read-out: TNF α
Procedure, shortened: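 Human PBMC isolated from heparinised blood by density gradient (10^6 cells/ml) stimulated with LPS at 1 μg/ml final, with test compound at 0.1, 1 and 10 μM, 72 h at 37° C, 5% CO2. Supernatant TNF-α quantified by sandwich ELISA against recombinant standard curve; % suppression calculated.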

[3] = test system: phosphodiesterase-4 (PDE-4) extract from U937 cells; assay: Phosphodiesterase-4 inhibiting activity (isotopic two-step method); assay type: biochemical; details: for IC50: 1.01 μM [3H]cAMP+cAMP

SMILES | IC50 ([1]; Homo sapiens, RPMI-1788) | IC50 ([2]; Homo sapiens, PBMC) | IC50 [1] | PDE-4 (% inhibition) ([3]; @ 10 μM) | IC50 [2] | also measured
COc1ccc(-c2ccc3ncnc(N4CCN(C(=O)Nc5cccc(Cl)c5)CC4)c3n2)cc1OC(C)C [Example 214, 4-[N-(3-chloro-phenylcarbamoyl)-piperazin-1-yl]-6-(3-isopropoxy-4-methoxy-phenyl)-pyrido[3,2-d]pyrimidine] | 0.05 µM | 0.3 µM | – | – | – | PDE-4 (% inhibition) ([3]; @ 0.3 μM): 61% @ 0.3 μM
COc1cc(-c2ccc3ncnc(N4CCN(C(=O)Nc5cccc(Cl)c5)CC4)c3n2)ccc1OC(C)C [Example 121] | – | – | 0.3 µM | 54% 10 μM | – | –
COc1ccc(-c2ccc3ncnc(N4CCN(C(=O)COc5ccc(Cl)cc5)CC4)c3n2)cc1OC [Example 113, 4-[(N-4-chlorophenoxy-acetyl)-piperazin-1-yl]-6-(3,4-dimethoxyphenyl)-pyrido[3,2-d]pyrimidine] | – | – | 0.04 µM | – | 0.3 µM | PDE-4 (% inhibition) ([3]; @ 0.4 μM): 77% @ 0.4 μM
COc1ccc(-c2ccc3ncnc(N4CCN(C(=O)Nc5cccc(Cl)c5)CC4)c3n2)cc1Cl [Example 79, 4-[(N-3-chlorophenylcarbamoyl)-piperazin-1-yl]-6-(3-chloro-4-methoxyphenyl)-pyrido[3,2-d]pyrimidine] | – | – | 0.3 µM | 67% @ 10 μM | – | –
COc1ccc(-c2ccc3ncnc(N4CCN(C(=O)Nc5ccc(F)c(Cl)c5)CC4)c3n2)cc1OC [Example 108, 4-[(N-3-chloro-4-fluorophenylcarbamoyl)-piperazin-1-yl]-6-(3,4-dimethoxy-phenyl)-pyrido[3,2-d]pyrimidine] | – | – | 0.06 µM | – | 0.2 µM | PDE-4 (% inhibition) ([3]; @ 0.2 μM): 59% @ 0.2 μM
COc1ccc(-c2ccc3nc(N)nc(N4CCN(C(=O)COc5ccc(Cl)cc5)CC4)c3n2)cc1OC [Example 59, 2-amino-4-[(N-4-chloro-phenoxy-acetyl)-piperazin-1-yl]-6-(3,4-dimethoxyphenyl)-pyrido[3,2-d]pyrimidine] | 0.016 µM | – | – | – | – | IC50 [3]: 0.034 µM
COc1ccc(-c2ccc3nc(N)nc(N4CCN(C(C)=O)CC4)c3n2)cc1OC [Example 49, 2-amino-4-(N-acetyl-piperazinyl)-6-(3,4-dimethoxyphenyl)-pyrido[3,2-d]pyrimidine] | – | – | 0.07 µM | – | 0.04 µM | PDE-4 (% inhibition) ([3]; @ 0.04 μM): 48% @ 0.04 μM
Cc1ccc(-c2ccc3ncnc(N4CCN(C(=O)Nc5cccc(Cl)c5)CC4)c3n2)cc1C [Example 81] | – | – | 0.5 µM | 12% @ 10 μM | – | –
COc1ccc(-c2ccc3nc(C)nc(N4CCN(C(=O)Nc5cccc(C)c5)CC4)c3n2)cc1OC [Example 11] | – | – | 0.026 µM | – | 0.5 µM | PDE-4 (% inhibition) ([3]; @ 0.5 μM): 69% @ 0.5 μM
O=C(Nc1cccc(Cl)c1)N1CCN(c2ncnc3ccc(-c4ccc5c(c4)OCCO5)nc23)CC1 [Example 80, 4-[(N-3-chlorophenylcarbamoyl)-piperazin-1-yl]-6-(1,4-benzodioxan-6-yl)-pyrido[3,2-d]pyrimidine] | – | – | 0.3 µM | 17% @ 10 μM | – | –
CCOC(=O)C1CCN(c2nc(N)nc3ccc(-c4ccc(OC)c(OC)c4)nc23)CC1 [Example 26, 2-amino-4-[4-(ethoxycarbonyl)piperidin-1-yl]-6-(3,4-dimethoxyphenyl)pyrido[3,2-d]pyrimidine] | 2.6 µM | 0.06 µM | – | – | – | IC50 [3]: 0.25 µM
COc1ccc(-c2ccc3ncnc(N4CCN(C(=O)Nc5cccs5)CC4)c3n2)cc1OC [Example 109] | – | – | 0.06 µM | – | 0.13 µM | PDE-4 (% inhibition) ([3]; @ 0.09 μM): 58% @ 0.09 μM
COc1ccc(-c2ccc3nc(N)nc(N4CCN(c5ccccn5)CC4)c3n2)cc1OC [Example 47, 2-amino-4-(2-pyridyl-piperazin-1-yl)-6-(3,4-dimethoxyphenyl)-pyrido[3,2-d]pyrimidine] | – | – | 0.3 µM | – | 0.05 µM | PDE-4 (% inhibition) ([3]; @ 0.05 μM): 64% @ 0.05 μM
COc1ccc(-c2ccc3ncnc(N4CCN(C(=O)Nc5cccc(C)c5)CC4)c3n2)cc1OC [Example 8] | 0.0094 µM | 0.07 µM | – | – | – | IC50 [3]: 0.016 µM
O=C(Nc1cccc(Cl)c1)N1CCN(c2ncnc3ccc(-c4ccc5c(c4)OCO5)nc23)CC1 [Example 82, 4-[(N-3-chlorophenylcarbamoyl)-piperazin-1-yl]-6-(3,4-methylenedioxy)phenyl-pyrido[3,2-d]pyrimidine] | – | – | 0.3 µM | 31% @ 10 μM | – | –
COc1ccc(-c2ccc3nc(N)nc(N4CCN(CC(=O)Nc5nccs5)CC4)c3n2)cc1OC [Example 48, 2-amino-4-[2-(piperazin-1-yl)-acetic acid N-(2-thiazolyl)-amide]-6-(3,4-dimethoxyphenyl)-pyrido[3,2-d]pyrimidine] | – | – | 0.06 µM | – | 0.06 µM | PDE-4 (% inhibition) ([3]; @ 0.06 μM): 59% @ 0.06 μM
Nc1nc(N2CCN(C(=O)COc3ccc(Cl)cc3)CC2)c2nc(-c3ccc(F)cc3)ccc2n1 [Example 207, 2-amino-4-[(N-4-chloro-phenoxy-acetyl)-piperazin-1-yl]-6-(4-fluorophenyl)-pyrido[3,2-d]pyrimidine] | – | – | 0.03 µM | 34% @ 10 μM | – | –

SMILES | IC50 ([1]; Homo sapiens, RPMI-1788) | IC50 ([2]; Homo sapiens, PBMC) | IC50 [1] | PDE-4 (% inhibition) ([3]; @ 10 μM) | IC50 [2] | also measured
COc1ccc(-c2ccc3nc(N)nc(N4CCN(C(=O)c5ccco5)CC4)c3n2)cc1OC [Example 51, 2-amino-4-[1-(2-furoyl)-piperazin-1-yl]-6-(3,4-dimethoxyphenyl)-pyrido[3,2-d]pyrimidine] | – | – | 0.03 µM | – | – | PDE-4 (% inhibition) ([3]; @ 0.03 μM): 63% @ 0.03 μM
COc1ccc(-c2ccc3nc(N)nc(N4CCN(C(=O)Nc5cccc(Cl)c5)CC4)c3n2)cc1O [Example 212] | 0.04 µM | 0.9 µM | – | – | – | PDE-4 (% inhibition) ([3]; @ 0.9 μM): 43% @ 0.9 μM
COc1cc(-c2ccc3ncnc(N4CCN(C(=O)Nc5cccc(Cl)c5)CC4)c3n2)ccc1OCC1CC1 [Example 211, 4-[N-(3-chloro-phenylcarbamoyl)-piperazin-1-yl]-6-(3-methoxy-4-cyclopropylmethoxy-phenyl)-pyrido[3,2-d]pyrimidine] | – | – | 0.4 µM | 16% @ 10 μM | – | –
COc1ccc(-c2ccc3nc(N)nc(N4CCN(c5ccc(F)cc5)CC4)c3n2)cc1OC [Example 43, 2-amino-4-(4-fluorophenyl-piperazin-1-yl)-6-(3,4-dimethoxyphenyl)-pyrido[3,2-d]pyrimidine] | – | – | 0.3 µM | – | 0.09 µM | PDE-4 (% inhibition) ([3]; @ 0.09 μM): 61% @ 0.09 μM
COc1ccc(-c2ccc3nc(N)nc(OC(C)C)c3n2)cc1OC [Example 24, 2-amino-4-isopropoxy-6-(3,4-dimethoxyphenyl)pyrido[3,2-d]pyrimidine] | 0.066 µM | 0.5 µM | – | – | – | PDE-4 (% inhibition) ([3]; @ 0.5 μM): 29% @ 0.5 μM
COc1ccc(-c2ccc3nc(N)nc(N4CCCC(C(=O)NCC(C)C)C4)c3n2)cc1OC (stereo not drawn) [Example 268, 2-amino-4-[(3-carboxylic acid isobutylamide)-piperidin-1-yl]-6-(3,4-dimethoxyphenyl)-pyrido[3,2-d]pyrimidine] | 0.5 µM | 0.7 µM | – | – | – | –
O=C(Nc1cccc(Cl)c1)N1CCN(c2ncnc3ccc(-c4ccc(Cl)c(Cl)c4)nc23)CC1 [Example 84] | – | – | 0.7 µM | 22% @ 10 μM | – | –
CCOc1ccc(-c2ccc3ncnc(N4CCN(C(=O)Nc5cccc(Cl)c5)CC4)c3n2)cc1Cl [Example 83] | – | – | 0.5 µM | 49% @ 10 μM | – | –
COc1ccc(-c2ccc3nc(N)nc(N4CCN(C(=O)Nc5ccc(F)cc5)CC4)c3n2)cc1OC [Example 56, 2-amino-4(N-4-fluoro-phenyl-carbamoyl-piperazin-1-yl)-6-(3,4-dimethoxy-phenyl)-pyrido[3,2-d]pyrimidine] | – | – | 0.003 µM | – | 0.07 µM | PDE-4 (% inhibition) ([3]; @ 0.1 μM): 74% @ 0.1 μM
Cc1cc(-c2ccc3nc(N)nc(N4CCOCC4)c3n2)ccc1F [Example 244, 2-amino-4-morpholino-6-(4-fluoro-3-methylphenyl)-pyrido[3,2-d]pyrimidine] | 3.8 µM | 7.2 µM | – | – | – | –
COc1ccc(-c2ccc3nc(N)nc(NCCNC(=O)Nc4cccc(C)c4)c3n2)cc1OC [Example 261, 2-amino-4-[(3-methylphenylcarbamoyl)-ethylenediamine-1-N-yl]-6-(3,4-dimethoxyphenyl)-pyrido[3,2-d]pyrimidine] | 0.08 µM | 0.8 µM | – | 86% @ 10 μM | – | –
COc1ccc(-c2ccc3nc(N)nc(N4CCN(C)CC4)c3n2)cc1OC [Example 31, 2-amino-4-(N-methyl-piperazino)-6-(3,4-dimethoxyphenyl)-pyrido[3,2-d]pyrimidine] | 0.9 µM | 0.8 µM | – | – | – | –
COc1ccc(-c2ccc3nc(N)nc(NCc4ccccn4)c3n2)cc1OC [Example 35, 2-amino-4-[2-(aminomethyl)pyridino]-6-(3,4-dimethoxyphenyl)-pyrido[3,2-d]pyrimidine] | – | – | 0.8 µM | – | 0.7 µM | –
Nc1nc(N2CCN(CC(=O)Nc3nccs3)CC2)c2nc(-c3ccc4c(c3)OCCO4)ccc2n1 [Example 201] | 0.8 µM | 3.4 µM | – | – | – | –
Nc1nc(N2CCOCC2)c2nc(-c3ccc4c(c3)OCCO4)ccc2n1 [Example 165, 2-amino-4-(morpholino)-6-(1,4-benzodioxane-phenyl)pyrido[3,2-d]pyrimidine] | – | – | 0.6 µM | – | 0.9 µM | –
Cc1csc(-c2ccc3nc(N)nc(N4CCOCC4)c3n2)c1 [Example 239, 2-amino-4-morpholino-6-(4-methyl-2-thienyl)-pyrido[3,2-d]pyrimidine] | 4.6 µM | 4.9 µM | – | – | – | –
